Key:
[1] = system: human large intestine cancer cell line HCT-116; assay: In vitro cell growth inhibitory activity against human large intestine cancer line by combined use with chemotherapeutic; format: cell-based; conditions: HCT-116, 3 days, IV-361 10 nM
Procedure: A human large intestine cancer cell line HCT-116 (obtained from DS Pharma Biomedical Co., Ltd.) was cultured in a McCoy's 5A medium (manufactured by Thermo Fisher Scientific, Inc.) containing 10% fetal bovine serum (FBS) (manufactured by Thermo Fisher Scientific, Inc.) and 1% penicillin/streptomycin/amphotericin B (manufactured by Thermo Fisher Scientific, Inc.) and inoculated at 0.5 to 2.0×10^3 cells/well to a 96-well plate. The cells were cultured overnight in a carbon dioxide incubator of 37° C. containing 5% carbon dioxide. The medium was replaced with a fresh medium on the next day, and then, a mixed solution of a DMSO solution of a test compound (IV-361, 5-FU or SN-38) with varying concentrations and a cell culture medium (final DMSO concentration: 0.2%) was added thereto. The concentration of the test compound was 10 nM, the concentration of 5-FU (manufactured by Wako Pure Chemical Industries, Ltd.) was 1000 nM, and the concentration of SN-38 (manufactured by Tocris Bioscience) was adjusted to 1 nM to carry out the test. For a control group, a mixed solution of DMSO and a cell culture medium (final DMSO concentration: 0.2%) was used instead of the DMSO solution of the test compound.
After the addition of the DMSO solution of the test compound, the cells were cultured for 3 days in a carbon dioxide incubator. Then, the absorbance (measurement wavelength: 565 nm) of the medium in each group was measured by using In Vitro Toxicology Assay Kit Sulforhodamine B based (manufactured by Sigma-Aldrich Co. LLC.).
The rate of inhibition of growth (%) was calculated according to the expression given below. Specifically, in the case where the difference between the average absorbance before culture (day 0) and the average absorbance after culture in the test compound-administered group is the same as the difference between the average absorbance before culture (day 0) and the average absorbance after culture in the control group, the rate of inhibition of cell growth is 0%. Rate of inhibition of growth=(1−((Average absorbance of the test compound-administered group after culture)−(Average absorbance of the test compound-administered group on day 0))/((Average absorbance of the control group after culture)−(Average absorbance of the control group on day 0)))×100

[2] = system: human large intestine cancer cell line (HCT-116) tumor; assay: In vivo tumor growth inhibition test for human large intestine cancer cell line by combined use with chemotherapeutic; conditions: for Rate of suppression of tumor volume: IV-361 25 mg/kg/day oral, alone
Procedure: The prepared cell suspension was subcutaneously injected at 0.1 mL/mouse to the right abdomens of female BALB nude mice (supplied by Charles River Laboratories Japan, Inc.).
Individuals whose tumor volume was within the range of 50 to 200 mm^3 were selected and grouped such that the tumor volume was almost equivalent. After the grouping, a test compound or only a solvent was administered in a repeated manner to the mice of each group as follows:
Single-agent administration group:
Control group: solvent (administered once a day)
5-FU, oxaliplatin, and irinotecan were intraperitoneally administered (5 mL/kg).
After a lapse of a predetermined period, the body weights of the mice of each group and the long diameter and short diameter of tumor were measured, and the tumor volume of the test compound-administered group with respect to the tumor volume of the control group was calculated as the rate of suppression of tumor volume (%).

[3] = system: mouse collagen-induced arthritis model; assay: Swelling suppression test using mouse collagen-induced arthritis model; format: in vivo; conditions: dose of 100 mg/kg, repeated oral administration, male DBA/1J mice
Procedure: A mouse collagen-induced arthritis model test was carried out by modifying the method of Mihara et al. (British Journal of Pharmacology, 154, 153 (2008)).
Male DBA/1J mice (supplied by Japan SLC, Inc.) were used as laboratory animals. An adjuvant prepared from a type II collagen solution (Collagen Research Center) and Adjuvant Complete Freund (manufactured by Difco Laboratories Ltd.) was intracutaneously administered twice to the bases of the tails of the mice under inhalation anesthesia with isoflurane (manufactured by Wako Pure Chemical Industries, Ltd.) for sensitization to prepare arthritis models.
Also, Adjuvant Complete Freund (manufactured by Difco Laboratories Ltd.) not containing type II collagen was administered by a similar method to obtain a control group. […]
During the test period, the swelling scoring of limbs (score 0: no disease, score 1: swelling and redness or weak swelling in the small joint of only one of the toes and the fingers, score 2: moderate swelling in the small joints of two or more of the toes and the fingers, score 3: strong swelling in the ankle or the forefoot wrist, score 4: overall strong swelling) was carried out to evaluate the drug efficacy of the test compound. When the total score of the solvent-administered group on the final day was defined as 100%, the rate of reduction in score (%) at each dose of the test compound was calculated.

## Cc1ccc(F)cc1NC(=O)N1Cc2c(NC(=O)C3([Si](C)(C)C)CCC3)n[nH]c2C1(C)C [IV-361, N-(5-Fluoro-2-methylphenyl)-6,6-dimethyl-3-[1-(trimethylsilyl)cyclobutanecarboxamido]-4,6-dihydropyrrolo[3,4-c]pyrazole-5 (1H)-carboxamide]
[1]; Homo sapiens, 72 h, single-agent treatment, read-out: Rate of inhibition of growth (%)
  inhibition at 0.01 µM: 11%
[1]; 5-FU 1000 nM, SN-38 1 nM
  cancer cell growth inhibitory effect in combined use with chemotherapeutic (5-FU or SN-38): synergistic cancer cell growth inhibitory effect
[2]; 25 mg/kg IV-361 oral + 15 mg/kg 5-FU, 3 mg/kg oxaliplatin or 12.5 mg/kg irinotecan i.p., HCT-116 nude mice
  rate of suppression of tumor volume in combined use with chemotherapeutic (5-FU, oxaliplatin or irinotecan): excellent rate of suppression of tumor volume
[2]; Table 52
  Rate of suppression of tumor volume: 46%
[2]; Table 53
  Rate of suppression of tumor volume: 46%
[2]; Table 54
  Rate of suppression of tumor volume: 20%
[3]
  rate of inhibition (reduction in swelling score): ≥ 50%

Source: patent US10894798B2, “Substituted dihydropyrrolopyrazole derivative” (UBE INDUSTRIES, LTD., priority 2015, dated 2021)
